Some test systems named below: UACC-62 melanoma; HCT-15 colon; MALME-3M melanoma; SNB-75 CNS; RXF 393 renal; ACHN renal; TK-10 renal; A549 NSCLC; NCI-H460 lung; KM12 colon.
Experiment in all cases: NCI tumour cell line growth inhibition, 48 h

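1) Cells in 96-well plates. 2) Compound, 48 h, 5 concentrations. 3) Linear interpolation between surrounding doses. 4) Unreached endpoint = highest concentration. GI50 = concentration required for 50% inhibition of growth. TGI is the concentration that stops growth completely.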

In the case of `O=C(O)c1c(O)c2cc(Br)ccc2oc1=O`, the TGI in the assay with UACC-62 melanoma, in the assay on HCT-15 colon, in the assay with MALME-3M melanoma, in the assay on SNB-75 CNS, in the assay with RXF 393 renal and in the assay on ACHN renal was more than 100 µM throughout. In addition, the TGI in the assay on TK-10 renal, in the assay on A549 NSCLC and with NCI-H460 lung was more than 100 µM each time.

For `Cc1ccc(C(=O)N(C(C)C)C(C)C)cc1N=NN(C)C`, the TGI in the assay with UACC-62 melanoma, in the assay on HCT-15 colon, with KM12 colon, with MALME-3M melanoma, in the assay on ACHN renal and with TK-10 renal was more than 100 µM in each case. The TGI in the assay on A549 NSCLC and in the assay on NCI-H460 lung was more than 100 µM throughout.

For the compound `CCOC(=O)c1sc(-c2ccc(OS(=O)(=O)c3cccs3)c(C=O)c2)nc1C`, the GI50 with UACC-62 melanoma is 1.43 µM; in the assay with HCT-15 colon, 0.561 µM; with KM12 colon, 1.47 µM; in the assay on MALME-3M melanoma, 2.22 µM; in the assay on SNB-75 CNS, 1.57 µM; in the assay on ACHN renal, 2.06 µM. The GI50 was 1.27 µM in the assay on TK-10 renal, 2.3 µM in the assay on A549 NSCLC and 2.22 µM in the assay with NCI-H460 lung. Also, the TGI with UACC-62 melanoma was found to be 2.92 µM; in the assay with HCT-15 colon, 2.13 µM; in the assay with KM12 colon, 3.24 µM; in the assay with MALME-3M melanoma, 5.69 µM; in the assay with SNB-75 CNS it was 4.07 µM; in the assay on ACHN renal, 5.88 µM. The TGI with TK-10 renal worked out at 4.33 µM; in the assay on A549 NSCLC, 6.72 µM; in the assay on NCI-H460 lung it was 4.96 µM.

Regarding `Nc1[nH]c(=O)ncc1F`, the TGI in the assay with UACC-62 melanoma, with HCT-15 colon, in the assay on KM12 colon, in the assay on MALME-3M melanoma, with RXF 393 renal and in the assay with ACHN renal was more than 100 µM throughout. Moreover, the TGI in the assay with TK-10 renal, in the assay on A549 NSCLC and in the assay with NCI-H460 lung was more than 100 µM in each case.

In the case of `S=c1nc(-c2ccccc2)oc(=NC2CCCCC2)n1C1CCCCC1`, the GI50 with UACC-62 melanoma is 5.92 µM; in the assay on HCT-15 colon, 3.35 µM; in the assay on KM12 colon, 3.48 µM; in the assay on SNB-75 CNS it was 4.65 µM; in the assay on ACHN renal, 4.14 µM; with TK-10 renal, 4.31 µM. Besides, the GI50 is 2.26 µM with A549 NSCLC and 2.93 µM in the assay with NCI-H460 lung. The TGI stood at 21 µM in the assay with UACC-62 melanoma; 13.5 µM in the assay on HCT-15 colon; 10.1 µM with KM12 colon; 17.5 µM in the assay on SNB-75 CNS; 14.2 µM in the assay on ACHN renal; 8.57 µM in the assay with TK-10 renal. For the same compound, the TGI in the assay with A549 NSCLC was found to be 8.21 µM; with NCI-H460 lung, 10.2 µM.

For `O=NC1c2cccc3cccc(c23)C1N=O` (centres undefined), the TGI with HCT-15 colon came out at 5.02 µM; in the assay on KM12 colon it was 17 µM; with SNB-75 CNS it was 31.3 µM; with RXF 393 renal, 14.1 µM; with ACHN renal, 3.9 µM; with TK-10 renal, 37.1 µM. For the same compound, the TGI in the assay on A549 NSCLC was 17 µM; in the assay on NCI-H460 lung, 17.5 µM.

Regarding `Cn1cnc([N+](=O)[O-])c1Sc1ccccn1`, the TGI with UACC-62 melanoma, in the assay on KM12 colon, in the assay with MALME-3M melanoma, in the assay on SNB-75 CNS, with ACHN renal and with TK-10 renal was more than 100 µM in each case. The TGI with A549 NSCLC and in the assay with NCI-H460 lung was more than 100 µM throughout.

`Cc1cnc[nH]c1=O`: the TGI in the assay on UACC-62 melanoma, in the assay on HCT-15 colon, in the assay with KM12 colon, with MALME-3M melanoma, with SNB-75 CNS and in the assay on ACHN renal was more than 100 µM throughout. For the same compound, the TGI in the assay with TK-10 renal, in the assay with A549 NSCLC and with NCI-H460 lung was more than 100 µM throughout.

On to `Cc1c[nH]c2c1C13CC1CN(C(=O)c1cc4cc(NC(=O)c5cc6ccccc6o5)ccc4[nH]1)C3=CC2=O` (centres undefined), for which the GI50 in the assay on UACC-62 melanoma, in the assay on HCT-15 colon, in the assay on A549 NSCLC and with NCI-H460 lung was more than 1.17 ng/mL each time. Also, the TGI in the assay with UACC-62 melanoma, in the assay with HCT-15 colon, in the assay on KM12 colon, with MALME-3M melanoma, in the assay with RXF 393 renal and with TK-10 renal was less than 0.001 µM in each case. The compound further registered a TGI with NCI-H460 lung of less than 0.001 µM.

With `CCOC(=O)C1N(S(=O)(=O)c2ccc(C)cc2)CCC12c1ccccc1N(C(C)=O)C2C(/C=C/C(=O)OC)=C/C(=O)OC` (centres undefined), the TGI in the assay on UACC-62 melanoma, in the assay with KM12 colon, in the assay on MALME-3M melanoma, in the assay with SNB-75 CNS, in the assay with RXF 393 renal and with ACHN renal was more than 100 µM throughout. The TGI in the assay on TK-10 renal, with A549 NSCLC and with NCI-H460 lung was more than 100 µM in each case.

In the case of `O=C(CC(=O)N1N=C(c2ccccc2)C(N=Nc2ccc(C(=O)O)cc2)C1=O)Nc1ccc(F)cc1` (centres undefined), the TGI in the assay with UACC-62 melanoma was 42.8 µM; in the assay with HCT-15 colon, more than 100 µM; with MALME-3M melanoma, more than 100 µM; in the assay on RXF 393 renal, 25.3 µM; in the assay with ACHN renal, more than 100 µM; with TK-10 renal, more than 100 µM. Moreover, the TGI in the assay on A549 NSCLC and in the assay with NCI-H460 lung was more than 100 µM throughout.

`O=C(c1ccccc1)C1C(C(=O)c2ccccc2)N1Cc1ccccc1` (centres undefined): the TGI in the assay on UACC-62 melanoma is 70.8 µM; with HCT-15 colon, more than 100 µM; in the assay on KM12 colon, more than 100 µM; in the assay on MALME-3M melanoma, 77.3 µM; with SNB-75 CNS, 57.1 µM; in the assay on ACHN renal, more than 100 µM. Also, the TGI in the assay on TK-10 renal, with A549 NSCLC and with NCI-H460 lung was more than 100 µM each time.

With `COC(=O)/C=C/C(=O)C1C(C(=O)OC)C2(C(=O)OC)CCC1(C(=O)OC)N2` (centres undefined), the TGI with UACC-62 melanoma, with HCT-15 colon, in the assay with KM12 colon, with MALME-3M melanoma, in the assay on RXF 393 renal and with TK-10 renal was more than 100 µM throughout. In the assay with A549 NSCLC, this compound yielded a TGI of more than 100 µM.

The values are drawn from PubChem BioAssay (NCI).
